Assay [1] deals with Delta-type opioid receptor (Homo sapiens, UniProt P41143). Format: cell membranes, HEK293, Membrane. As to conditions: hek293.
In another assay the target is T1, Glucocorticoid receptor (Homo sapiens, UniProt P04150). Further: in other assays of this panel Not Active means under 50% inhibition at 10 µM.
T1 sequence (P04150 whole entry): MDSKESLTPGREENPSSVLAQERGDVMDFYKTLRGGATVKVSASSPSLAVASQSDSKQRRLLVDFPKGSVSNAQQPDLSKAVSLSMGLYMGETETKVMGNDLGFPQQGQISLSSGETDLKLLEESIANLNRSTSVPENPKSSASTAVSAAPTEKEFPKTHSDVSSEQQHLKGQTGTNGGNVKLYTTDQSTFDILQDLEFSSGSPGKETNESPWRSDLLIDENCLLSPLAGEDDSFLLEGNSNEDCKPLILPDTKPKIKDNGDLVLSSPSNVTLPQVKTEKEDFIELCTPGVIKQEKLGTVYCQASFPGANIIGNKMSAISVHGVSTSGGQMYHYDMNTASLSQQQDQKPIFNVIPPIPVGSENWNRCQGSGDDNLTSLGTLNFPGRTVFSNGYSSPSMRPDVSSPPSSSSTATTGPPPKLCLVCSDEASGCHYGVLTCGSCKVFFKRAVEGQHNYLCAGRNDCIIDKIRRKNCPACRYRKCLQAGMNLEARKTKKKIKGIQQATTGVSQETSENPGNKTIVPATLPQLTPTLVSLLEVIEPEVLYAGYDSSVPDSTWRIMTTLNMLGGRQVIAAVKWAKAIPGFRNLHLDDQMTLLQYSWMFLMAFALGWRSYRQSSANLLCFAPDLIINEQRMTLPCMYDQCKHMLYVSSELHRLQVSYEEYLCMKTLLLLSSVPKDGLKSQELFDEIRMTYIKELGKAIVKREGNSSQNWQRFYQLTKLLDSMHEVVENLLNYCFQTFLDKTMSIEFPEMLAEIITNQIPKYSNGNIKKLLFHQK
As to conditions: hela s3.

A short description of assay [2]: DRUGMATRIX: Phosphodiesterase PDE4 enzyme inhibition (substrate: [3H]cAMP + cAMP). Particulars: u-937; Not Active = under 50% inhibition at 10 µM.
The nature of assay [3]: DRUGMATRIX: Leukotriene, BLT (LTB4) radioligand binding (ligand: [3H]LTB4). It counts as cell membranes, Membrane. As to conditions: u-937; Not Active = under 50% inhibition at 10 µM.
For the next assay, the target named is Substance-P receptor (Homo sapiens, UniProt P25103). It counts as cell membranes, CHO, Membrane. As to conditions: cho. Further: in other assays of this panel Not Active means under 50% inhibition at 10 µM.
A short description of assay [4]: DRUGMATRIX: Interleukin IL-1 radioligand binding (ligand: [125I] interleukin 1beta). As to conditions: nih3t3; Not Active = under 50% inhibition at 10 µM. It counts as cell membranes, Membrane.
Assay [5] is described as follows: DRUGMATRIX: ATPase, Na+/K+ enzyme inhibition (substrate: ATP). Format: tissue-based, Sus scrofa, Heart. Particulars: Not Active = under 50% inhibition at 10 µM.
Assay [6] deals with Kappa-type opioid receptor (Homo sapiens, UniProt P41145). In words: DRUGMATRIX: Opiate kappa (OP2, KOP) radioligand binding (ligand: [3H] Diprenorphine). Particulars: hek293; Not Active = under 50% inhibition at 10 µM. Format: cell membranes, HEK293, Membrane.
A further assay addresses Adenosine receptor A2a (Homo sapiens, UniProt P29274). The assay can be described thus: DRUGMATRIX: Adenosine A2A radioligand binding (ligand: […]). It counts as cell membranes, HEK293, Membrane. Particulars: hek293; Not Active = under 50% inhibition at 10 µM.
For assay [7], the target named is T2, Amine oxidase [flavin-containing] A (Homo sapiens, UniProt P21397).
T2 sequence (P21397 whole entry): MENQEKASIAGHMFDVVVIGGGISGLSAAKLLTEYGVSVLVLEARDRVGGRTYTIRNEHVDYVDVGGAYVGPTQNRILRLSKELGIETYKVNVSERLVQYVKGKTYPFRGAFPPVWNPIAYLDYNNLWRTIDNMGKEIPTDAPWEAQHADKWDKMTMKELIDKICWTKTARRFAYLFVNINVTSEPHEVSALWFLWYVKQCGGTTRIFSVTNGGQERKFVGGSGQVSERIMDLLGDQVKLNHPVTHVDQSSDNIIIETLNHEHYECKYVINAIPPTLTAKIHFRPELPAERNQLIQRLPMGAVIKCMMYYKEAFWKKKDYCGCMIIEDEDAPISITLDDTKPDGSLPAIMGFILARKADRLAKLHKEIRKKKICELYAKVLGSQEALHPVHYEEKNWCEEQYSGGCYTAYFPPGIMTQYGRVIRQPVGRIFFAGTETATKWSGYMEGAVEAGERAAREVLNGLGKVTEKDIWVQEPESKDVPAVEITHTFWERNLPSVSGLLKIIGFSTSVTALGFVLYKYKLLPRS
In words: DRUGMATRIX: Monoamine Oxidase MAO-A enzyme inhibition (substrate: Kynuramine). Details: species or system BTI-TN-5B1-4. As to conditions: bti-tn-5b1-4; Not Active = under 50% inhibition at 10 µM.

The target of assay [8] is T3, C-X-C chemokine receptor type 2 (Homo sapiens, UniProt P25025). Further: in other assays of this panel Not Active means under 50% inhibition at 10 µM.
T3 sequence (P25025 whole entry): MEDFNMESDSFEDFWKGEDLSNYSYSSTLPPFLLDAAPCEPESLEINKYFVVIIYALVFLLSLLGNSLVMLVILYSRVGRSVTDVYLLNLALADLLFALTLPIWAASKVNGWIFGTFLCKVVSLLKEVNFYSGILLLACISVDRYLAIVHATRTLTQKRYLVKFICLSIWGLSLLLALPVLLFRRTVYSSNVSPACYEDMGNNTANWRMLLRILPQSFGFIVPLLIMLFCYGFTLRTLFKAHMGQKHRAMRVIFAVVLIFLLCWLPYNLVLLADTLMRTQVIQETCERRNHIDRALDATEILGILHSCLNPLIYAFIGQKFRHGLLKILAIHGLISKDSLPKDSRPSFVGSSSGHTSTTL
It counts as cell membranes, Membrane. As to conditions: cho-k1.

Assay [9] is described as follows: DRUGMATRIX: Calcium Channel Type L, Dihydropyridine radioligand binding (ligand: [3H] Nitrendipine). Particulars: Not Active = under 50% inhibition at 10 µM. It counts as cell membranes, Rattus norvegicus, Wistar, Cerebral cortex, Membrane.
Assay [10] can be described thus: DRUGMATRIX: Phosphodiesterase PDE3 enzyme inhibition (substrate: [3H]cAMP + cAMP). Format: tissue-based, Homo sapiens. As to conditions: platelet, Not Active = under 50% inhibition at 10 µM.

Chain of Delta-type opioid receptor (P41143 whole entry): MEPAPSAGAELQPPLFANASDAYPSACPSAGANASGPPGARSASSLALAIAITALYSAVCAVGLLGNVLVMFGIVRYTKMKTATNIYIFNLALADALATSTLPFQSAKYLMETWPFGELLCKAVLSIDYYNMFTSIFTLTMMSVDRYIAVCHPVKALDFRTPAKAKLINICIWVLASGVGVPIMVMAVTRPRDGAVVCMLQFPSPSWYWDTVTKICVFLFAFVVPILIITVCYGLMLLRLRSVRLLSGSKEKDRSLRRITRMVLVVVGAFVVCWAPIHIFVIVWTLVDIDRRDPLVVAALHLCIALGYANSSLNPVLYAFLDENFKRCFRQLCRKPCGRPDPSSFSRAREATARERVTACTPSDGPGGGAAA
Chain of Adenosine receptor A2a (P29274 whole entry): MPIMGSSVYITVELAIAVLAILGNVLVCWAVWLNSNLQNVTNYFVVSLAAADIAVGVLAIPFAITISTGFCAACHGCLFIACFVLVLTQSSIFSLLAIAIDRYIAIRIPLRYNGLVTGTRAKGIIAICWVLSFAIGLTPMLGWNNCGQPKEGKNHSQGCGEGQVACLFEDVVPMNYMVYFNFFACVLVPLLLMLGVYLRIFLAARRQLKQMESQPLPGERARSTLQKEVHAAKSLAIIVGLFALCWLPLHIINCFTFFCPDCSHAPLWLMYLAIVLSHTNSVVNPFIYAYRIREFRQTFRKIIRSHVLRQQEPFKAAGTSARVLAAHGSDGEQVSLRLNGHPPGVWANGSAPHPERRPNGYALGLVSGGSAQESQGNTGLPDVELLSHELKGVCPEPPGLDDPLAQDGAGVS
Chain of Substance-P receptor (P25103 whole entry): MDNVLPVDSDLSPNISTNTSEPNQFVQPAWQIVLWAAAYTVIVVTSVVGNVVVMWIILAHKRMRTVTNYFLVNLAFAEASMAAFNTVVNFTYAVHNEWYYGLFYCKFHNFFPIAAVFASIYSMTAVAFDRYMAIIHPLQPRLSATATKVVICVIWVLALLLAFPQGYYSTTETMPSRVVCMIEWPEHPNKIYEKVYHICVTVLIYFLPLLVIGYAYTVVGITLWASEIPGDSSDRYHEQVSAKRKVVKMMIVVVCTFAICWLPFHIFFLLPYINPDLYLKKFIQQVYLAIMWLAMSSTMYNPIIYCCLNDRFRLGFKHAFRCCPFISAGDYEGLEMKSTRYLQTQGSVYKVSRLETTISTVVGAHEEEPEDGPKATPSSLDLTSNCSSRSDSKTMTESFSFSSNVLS
Chain of Kappa-type opioid receptor (P41145 whole entry): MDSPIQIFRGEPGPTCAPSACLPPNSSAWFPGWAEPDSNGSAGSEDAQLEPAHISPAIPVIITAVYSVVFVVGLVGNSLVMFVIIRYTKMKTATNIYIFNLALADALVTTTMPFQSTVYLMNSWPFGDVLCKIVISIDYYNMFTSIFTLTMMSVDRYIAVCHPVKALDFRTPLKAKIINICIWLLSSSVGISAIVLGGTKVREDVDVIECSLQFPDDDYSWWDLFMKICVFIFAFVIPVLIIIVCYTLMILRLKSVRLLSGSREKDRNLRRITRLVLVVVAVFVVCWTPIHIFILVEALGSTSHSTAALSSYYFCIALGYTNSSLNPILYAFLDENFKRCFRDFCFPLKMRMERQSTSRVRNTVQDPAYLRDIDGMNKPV

By IC50 is commonly meant the concentration at which inhibition is half-maximal. The term Ki denotes the equilibrium dissociation constant of an inhibitor or competing ligand from its target. On to `COc1ccc2cc(CC(=O)O)ccc2c1`, for which the IC50 result (in assay [1]; at Glucocorticoid receptor; in [2]; in [3]; on Substance-P receptor; in [4]) was “Not Active” each time. Besides, the IC50 entry (in [5]; in assay [6]; on Adenosine receptor A2a; in assay [7]; in [8]; in assay [9]) was “Not Active” throughout. Further, in assay [10], the IC50 result is reported as “Not Active”. Moreover, the Ki result in [2], in assay [3], in [4], in assay [5], in assay [9] and in assay [10] was “Not Active” throughout.

For the compound `CC(C)NC[C@H](O)COc1cccc2[nH]ccc12`, the IC50 result (in assay [1]; against Glucocorticoid receptor; in [2]; in [3]; on Substance-P receptor; in assay [4]) was “Not Active” each time. Besides, the IC50 result (in [5]; in assay [6]; at Adenosine receptor A2a; in assay [7]; in [8]; in [9]) was “Not Active” each time. Further, the IC50 result in assay [10] was “Not Active”. Moreover, the Ki entry in assay [2], in assay [3], in assay [4], in assay [5], in assay [9] and in assay [10] was “Not Active” throughout.

With CARBOPLATIN, the IC50 result (in [1]; against Glucocorticoid receptor; in assay [2]; in assay [3]; against Substance-P receptor; in assay [4]) was “Not Active” throughout. In addition, the IC50 entry (in assay [5]; at Adenosine receptor A2a; in assay [7]; in assay [8]; in assay [9]; in assay [10]) was “Not Active” throughout. In addition, the Ki entry (in assay [1]; on Glucocorticoid receptor; in assay [2]; in assay [3]; at Substance-P receptor; in assay [4]) was “Not Active” each time. Also, the Ki entry (in assay [5]; on Adenosine receptor A2a; in assay [7]; in assay [8]; in [9]; in assay [10]) was “Not Active” throughout.

For CISPLATIN, the IC50 result (in assay [1]; on Glucocorticoid receptor; in assay [2]; in [3]; against Substance-P receptor; in [4]) was “Not Active” each time. Also, the IC50 in assay [5] (read-out: IC50) was 9.43 µM; at Adenosine receptor A2a, “Not Active”; in assay [7] it was “Not Active”; in assay [8] (read-out: IC50), 13.5 µM; in assay [9], “Not Active”; in assay [10] (read-out: IC50), 46.3 µM. For the same compound, the Ki result (in assay [1]; at Glucocorticoid receptor; in assay [2]; in assay [3]; at Substance-P receptor; in assay [4]) was “Not Active” each time. Further, the Ki entry at Adenosine receptor A2a was “Not Active”; in assay [7], “Not Active”; in assay [8] (read-out: Ki), 9.46 µM; in assay [9], “Not Active”.

Regarding GOLD SODIUM THIOMALATE, the IC50 result (in [1]; at Glucocorticoid receptor; in [2]; in [3]; against Substance-P receptor; in [4]) was “Not Active” throughout. In addition, the IC50 result (in assay [5]; on Adenosine receptor A2a; in [7]; in assay [8]; in assay [9]; in [10]) was “Not Active” in each case. The Ki entry (in assay [1]; at Glucocorticoid receptor; in assay [2]; in [3]; at Substance-P receptor; in assay [4]) was “Not Active” each time. Also, the Ki result (in [5]; on Adenosine receptor A2a; in assay [7]; in [8]; in [9]; in assay [10]) was “Not Active” in each case.

As for OXALIPLATIN, the IC50 entry (in assay [1]; against Glucocorticoid receptor; in [2]; in [3]; at Substance-P receptor; in [4]) was “Not Active” in each case. Further, the IC50 entry (in [5]; at Adenosine receptor A2a; in assay [7]; in assay [8]; in assay [9]; in assay [10]) was “Not Active” in each case. The Ki entry (in [1]; at Glucocorticoid receptor; in assay [2]; in assay [3]; at Substance-P receptor; in assay [4]) was “Not Active” throughout. Also, the Ki entry (in [5]; at Adenosine receptor A2a; in assay [7]; in assay [8]; in [9]; in [10]) was “Not Active” in each case.

For the origin of these results see ChEMBL document CHEMBL1909046, “DrugMatrix in vitro pharmacology data”.
